Assays:
Experiment in all cases: relative viability (nuclei count vs DMSO), 5 days (fraction); higher = more cells survive
KIN001-266 + Palbociclib = compound: CCN1CCC(CC1)N2C=C(N=N2)CNC3=CC4=C(C(=CN=C4C(=C3)Cl)C#N)NC5=CC(=C(C=C5)F)Cl [KIN001-266] + CC(=O)c1c(C)c2cnc(Nc3ccc(N4CCNCC4)cn3)nc2n(C2CCCC2)c1=O [Palbociclib] (partner 0.5 µM)
How it was run: (§1)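 Dosing by pin tool came one day after lung cancer cell lines were seeded in 1536-well plates, using either one drug or a fixed anchor-drug dose plus five library-drug doses (not always all listed) in √10 steps. After 5 days, nuclei were counted on 4× images. Relative viability is treated-well nuclei count divided by vehicle-well nuclei count, and values are medians of duplicate plates.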

KIN001-266 + Bortezomib = compound: CCN1CCC(CC1)N2C=C(N=N2)CNC3=CC4=C(C(=CN=C4C(=C3)Cl)C#N)NC5=CC(=C(C=C5)F)Cl [KIN001-266] + CC(C)C[C@H](NC(=O)[C@H](Cc1ccccc1)NC(=O)c1cnccn1)B(O)O [Bortezomib] (partner 0.002 µM)
How it was run: as §1

KIN001-266 + Foretinib = compound: CCN1CCC(CC1)N2C=C(N=N2)CNC3=CC4=C(C(=CN=C4C(=C3)Cl)C#N)NC5=CC(=C(C=C5)F)Cl [KIN001-266] + COc1cc2c(Oc3ccc(NC(=O)C4(C(=O)Nc5ccc(F)cc5)CC4)cc3F)ccnc2cc1OCCCN1CCOCC1 [Foretinib] (partner 0.25 µM)
How it was run: as §1

KIN001-266 + Pictilisib = compound: CCN1CCC(CC1)N2C=C(N=N2)CNC3=CC4=C(C(=CN=C4C(=C3)Cl)C#N)NC5=CC(=C(C=C5)F)Cl [KIN001-266] + CS(=O)(=O)N1CCN(Cc2cc3nc(-c4cccc5[nH]ncc45)nc(N4CCOCC4)c3s2)CC1 [Pictilisib] (partner 1 µM)
How it was run: as §1

Row | Cell Line | relative viability (KIN001-266 + Palbociclib; first compound 0.08 µM) | relative viability (KIN001-266 + Palbociclib; first compound 0.253 µM) | relative viability (KIN001-266 + Palbociclib; first compound 0.8 µM) | relative viability (KIN001-266 + Palbociclib; first compound 2.53 µM) | relative viability (KIN001-266 + Palbociclib; first compound 8 µM) | relative viability (KIN001-266 + Bortezomib; first compound 0.08 µM) | relative viability (KIN001-266 + Bortezomib; first compound 0.253 µM) | relative viability (KIN001-266 + Bortezomib; first compound 0.8 µM) | relative viability (KIN001-266 + Bortezomib; first compound 2.53 µM) | relative viability (KIN001-266 + Bortezomib; first compound 8 µM) | relative viability (KIN001-266 + Foretinib; first compound 0.08 µM) | relative viability (KIN001-266 + Foretinib; first compound 0.253 µM) | relative viability (KIN001-266 + Foretinib; first compound 0.8 µM) | relative viability (KIN001-266 + Foretinib; first compound 2.53 µM) | relative viability (KIN001-266 + Foretinib; first compound 8 µM) | relative viability (KIN001-266 + Pictilisib; first compound 0.08 µM) | relative viability (KIN001-266 + Pictilisib; first compound 0.253 µM) | relative viability (KIN001-266 + Pictilisib; first compound 0.8 µM) | relative viability (KIN001-266 + Pictilisib; first compound 2.53 µM) | relative viability (KIN001-266 + Pictilisib; first compound 8 µM)
1 | NCI-H650 | 0.375 | 0.361 | 0.357 | 0.363 | 0.413 | 0.997 | 0.844 | 0.997 | 0.771 | 0.768 | 1.07 | 1.02 | 0.98 | 1.04 | 0.988 | 0.924 | 0.899 | 0.917 | 0.921 | 0.908
2 | NCI-H661 | 0.424 | 0.413 | 0.403 | 0.372 | 0.349 | 0.784 | 0.755 | 0.878 | 0.837 | 0.566 | 1.02 | 1 | 1.03 | 0.954 | 0.946 | 0.43 | 0.412 | 0.433 | 0.363 | 0.568
3 | NCI-H727 | 0.683 | 0.617 | 0.642 | 0.671 | 0.729 | 0.843 | 0.893 | 0.889 | 0.864 | 0.514 | 0.883 | 0.855 | 0.821 | 0.888 | 0.649 | 0.389 | 0.351 | 0.327 | 0.264 | 0.304
4 | NCI-H838 | 0.228 | 0.207 | 0.212 | 0.164 | 0.22 | 0.831 | 0.737 | 0.85 | 0.719 | 0.56 | 1.03 | 1.09 | 1.06 | 0.928 | 0.717 | 0.521 | 0.423 | 0.515 | 0.304 | 0.238
5 | NCI-H1355 | 0.41 | 0.381 | 0.438 | 0.415 | 0.387 | 1.23 | 1.23 | 1.1 | 1.26 | 1.18 | 0.922 | 0.956 | 0.924 | 0.918 | 0.88 | 0.481 | 0.408 | 0.399 | 0.303 | 0.378
6 | NCI-H1437 | 0.34 | 0.33 | 0.296 | 0.325 | 0.278 | 0.534 | 0.435 | 0.514 | 0.493 | 0.447 | 1.21 | 1.28 | 1.26 | 1.35 | 1.04 | 0.357 | 0.464 | 0.413 | 0.359 | 0.177
7 | NCI-H1650 | 0.407 | 0.362 | 0.377 | 0.267 | 0.196 | 0.241 | 0.203 | 0.191 | 0.214 | 0.19 | 1.25 | 0.951 | 0.947 | 0.773 | 0.476 | 0.618 | 0.621 | 0.554 | 0.524 | 0.479

Reference: the supplement of paper PMC10307832
